Key:
[1] = Complex formation of labeled antibodies with labeled Abraxane nanoparticles, flow cytometry; type: binding; details: fluorescently labeled antibody and nanoparticles
Procedure: Three therapeutic monoclonal antibodies (bevacizumab, trastuzamab, and rituxan) were fluorescently labeled and incubated with fluorescently labeled Abraxane® nanoparticles. The particles were spun down, washed, and visualized by flow cytometry.

[2] = Bevacizumab incubated with free paclitaxel, Western blot with anti-paclitaxel antibody; type: binding; details: 4 mg bevacizumab, paclitaxel 0.1-2 mg, 30 minutes room temperature
Procedure: The following was performed to determine if bevacizumab binds free paclitaxel. 4 mg of bevacizumab was incubated with paclitaxel (0.1, 0.5, 1, or 2 mg) for 30 minutes at room temperature.

Substance | complex formation with Abraxane nanoparticles [1] | binding of free paclitaxel [2]
bevacizumab: Humanized monoclonal antibody that binds to vascular endothelial growth factor A | spontaneously formed complexes | did not bind
rituxan: Therapeutic monoclonal antibody | spontaneously formed complexes | –
